From patent US11433014B2, “Polyol polyrhamnosides, process for the preparation thereof, and cosmetic and/or pharmaceutical composition comprising same” (SOCIETE D'EXPLOITATION DE PRODUITS POUR LES INDUSTRIES …, priority 2017, dated 2022)
Where “and” joins values, the source holds several entries; their conditions need not be identical. Identical values can stand only once.

Tested on: Normal human fibroblasts
Test: Production of hyaluronic acid on human fibroblast cultures
Format: cell-based
Conditions: EGF 10 ng/ml (positive reference), 72-hour incubation
Experimental: B)—Evaluation of the Moisturizing Effect of the Compositions According to the Invention—Measurement of the Production of Hyaluronic Acid on Human Fibroblast Cultures:
Normal human fibroblasts are seeded and cultured in 96-well plates in 10% FCS (fetal calf serum) culture medium, at 37° C. in a humid atmosphere containing 5% CO2. […] Each condition is performed in n=4. At the end of a 72-hour incubation, the amount of hyaluronic acid excreted into the culture supernatant is measured using a specific assay kit (Hyaluronan Duo Set Assay Development Kit—Biotechne); and the amount of protein present in the cell lawns is measured using the BC Assay kit (Interchim). The amount of hyaluronic acid assayed is then expressed relative to the amount of protein per well. Means and standard deviations are calculated per condition and the level of hyaluronic acid production is evaluated by comparing the test conditions with the control condition (untreated cells).

EGF: epidermal growth factor, the positive reference for the model
Amount of hyaluronic acid produced, Mean (culture supernatant, n=4): 32.29 ng/μg protein and 25.28 ng/μg protein
Amount of hyaluronic acid produced, Difference relative to the control (vs untreated cells): 164%
